# Measured values published in US20250268953A1, “COMPOSITIONS AND METHODS FOR TREATING DISEASE II” (MICROBA IP PTY LTD, priority 2021, published 2025).
# “Also recorded” adds a separate entry of the source.
# What was measured:
# DSS treated C57Bl/6 mice = assay: Acute model of DSS induced murine colitis (gut barrier dysfunction); format: in vivo; conditions: 3% DSS six days; for DSS induced weight loss / epithelial injury / pathology / histopathological healing (histopathological score): vs DSS+vehicle
# [1] = test system: IL-23-mediated activation of STAT3; assay: HEK-Blue IL-23 reporter cell line, STAT3 inducible SEAP reporter; format: cell-based, human; conditions: control Janus kinase inhibitor at 10 μM; rhIL-23 5 ng/mL, 6 hours
# Protocol: Then, each seed culture broth was used to inoculate two technical replicates each generating six technical replicates from three biological replicates. The technical replicates were grown until early stationary phase and then cell free culture supernatant was harvested as previously described (Giri et al., 2019). Culture supernatants were size fractionated by passing through a 3 kDa CENTRICON® column according to the manufacturer's (Merck Millipore) instructions. To prepare A. shahii MH21-6 supernatant samples for assay, a seed culture was established from a single colony and grown until early stationary phase. Then, the seed culture broth was used to inoculate two technical replicates. […]
# STAT3 activity was assessed using the HEK Blue IL-23 cell line (Invivogen). […] STAT3 regulated SEAP reporter activity was assessed using Quanti Blue solution as recommended by the manufacturer (Invivogen). […] Cytotoxicity was assessed using an MTT assay. […] Cytotoxicity was assessed by measuring absorbance at 540 nm as recommended by the manufacturer (Invitrogen, Thermo Fisher, Australia). […]
# STAT3 activity was assessed using the HEK Blue IL-23 cell line (Invivogen). […] STAT3 regulated SEAP reporter activity was assessed using Quanti Blue solution as recommended by the manufacturer (Invivogen). […] Cytotoxicity was assessed using MTT assay. […]
# [2] = test system: IL-6-mediated activation of STAT3; assay: HEK-Blue IL-6 reporter cell line, STAT3-responsive SEAP reporter; format: cell-based, human; conditions: control Janus kinase inhibitor at 10 μM; IL-6 2 ng/mL, 24 hours
# Protocol: STAT3 activity was assessed using the HEK Blue IL-6 cell line (Invivogen). Briefly, 50,000 cells per well were seeded in triplicate in a 96-well plate 24 hours prior to the start of the assay. Bacteria supernatant or sterile bacterial medium were added to the cells at a final concentration of 10% v/v for a 60-minute pretreatment. Then recombinant human IL 6 (R&D systems) was added at a final concentration of 2 ng/mL and the cells were incubated at 37° C. for 24 hours. The ability of the supernatants to suppress IL-6 mediated STAT3 activation was compared to the Janus kinase inhibitor tofacitinib (10 μM). After 24 hours, the STAT3 regulated SEAP reporter activity was assessed using Quanti Blue solution as recommended by the manufacturer (Invivogen). Results are the average of three independent experiments. Cytotoxicity was assessed using the CellTiter-Glo® 2.0 Cell Viability Assay (Promega, Australia) as recommended by the manufacturer.
# [3] = Example 3 (G. formicilis) study
SMILES,"DSS induced weight loss (DSS treated C57Bl/6 mice; Example 1 (A. shahii) study, daily treatment)","goblet cells (DSS treated C57Bl/6 mice; Example 1 (A. shahii) study, relative to vehicle treated control)",epithelial injury (DSS treated C57Bl/6 mice; Example 1 (A. shahii) study),pathology / histopathological healing (histopathological score) (DSS treated C57Bl/6 mice; Example 1 (A. shahii) study),epithelial injury (DSS treated C57Bl/6 mice; Example 2 (C. sana) study),pathology / histopathological healing (histopathological score) (DSS treated C57Bl/6 mice; Example 2 (C. sana) study),DSS induced weight loss (DSS treated C57Bl/6 mice; [3]),epithelial injury (DSS treated C57Bl/6 mice; [3]),pathology / histopathological healing (histopathological score) (DSS treated C57Bl/6 mice; [3]),IL-23 mediated activation of STAT3 (SEAP expression) [1],IL-6 mediated activation of STAT3 [2]
C[C@]12C=CC(=O)C=C1CC[C@@H]1[C@@H]2C(=O)C[C@@]2(C)[C@H]1CC[C@]2(O)C(=O)CO [prednisone],exacerbated the DSS induced weight loss,ameliorated,ameliorated,significant improvement in disease pathology,Neither prednisone nor F. prausnitzii A2-165 had a significant impact,Neither prednisone nor F. prausnitzii A2-165 had a significant impact,exacerbated the DSS induced weight loss,ameliorated,significant improvement in disease pathology,,
C[C@@H]1CCN(C(=O)CC#N)C[C@@H]1N(C)c1ncnc2[nH]ccc12 [tofacitinib],,,,,,,,,,could be prevented; also recorded: inhibited IL-23 mediated SEAP expression,fully prevented
